Measurements: US20120095036A1, “NOVEL SUBSTITUTED INDAZOLE AND AZA-INDAZOLE DERIVATIVES AS GAMMA SECRETASE MODULATORS” (priority 2009, published 2012)

Tests used:
Aβtotal [1] = assay: Method 1: Aβtotal sandwich ELISA on media of SKNBE2 cells carrying APP 695 wild type; format: cell-based; conditions: Homo sapiens, SKNBE2 cells APP 695 wild type, 18 hours
Summary of the method: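 SKNBE2 cells expressing wild-type APP695 treated with compound for 18 h in Ultraculture; secreted Aβtotal measured by 6E10-capture/biotinylated 4G8 sandwich ELISA with fluorogenic peroxidase read-out. IC50 from 4-parameter fit, top/bottom fixed at 100/0, Hill slope 1; toxicity checked by WST-1.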

Aβ42 = assay: In vivo efficacy: Aβ42 lowering in brain (ELISA); design: species or system mouse; conditions: brain soluble fraction; typical protocol: single oral dose, overnight fasted animals, after four hours
From the text: (§1) To determine whether acute administration of an Aβ42 lowering agent would reduce Aβ42 levels in vivo, non-transgenic rodents, e.g. mice or rats were used. Alternatively, two to three month old Tg2576 mice expressing APP695 containing the “Swedish” variant can be used or a transgenic mouse model developed by Dr. Fred Van Leuven (K.U.Leuven, Belgium) and co-workers, with neuron-specific expression of a clinical mutant of the human amyloid precursor protein [V717I] (Moechars et al., 1999 J. Biol. Chem. 274, 6483). Young transgenic mice have high levels of Aβ in the brain but no detectable Aβ deposition. At approximately 6-8 months of age, the transgenic mice start to display spontaneous, progressive accumulation of β-amyloid (A13) in the brain, eventually resulting in amyloid plaques within the subiculum, hippocampus and cortex. Animals treated with the Aβ42 lowering agent were examined and compared to those untreated or treated with vehicle and brain levels of soluble Aβ42 and total Aβ would be quantitated by standard techniques, for example, using ELISA. Treatment periods varied from hours to days and were adjusted based on the results of the Aβ42 lowering once a time course of onset of effect could be established.
(§2) A typical protocol for measuring Aβ42 lowering in vivo is shown but it is only one of many variations that could be used to optimize the levels of detectable Aβ. For example, Aβ42 lowering compounds were formulated in 20% of Captisol® (a sulfobutyl ether of β-cyclodextrin) in water or 20% hydroxypropyl β cyclodextrin. The Aβ42 lowering agents were administered as a single oral dose or by any acceptable route of administration to overnight fasted animals. After four hours, the animals were sacrificed and Aβ42 levels were analysed.
(§3) Blood was collected by decapitation and exsanguinations in EDTA-treated collection tubes. Blood was centrifuged at 1900 g for 10 minutes (min) at 4° C. and the plasma recovered and flash frozen for later analysis. The brain was removed from the cranium and hindbrain. The cerebellum was removed and the left and right hemisphere were separated. The left hemisphere was stored at −18° C. for quantitative analysis of test compound levels. The right hemisphere was rinsed with phosphate-buffered saline (PBS) buffer and immediately frozen on dry ice and stored at −80° C. until homogenization for biochemical assays.
(§4) Mouse brains were resuspended in 10 volumes of 0.4% DEA (diethylamine)/50 mM NaCl pH 10 (for non-transgenic animals) or 0.1% 3-[(3-cholamidopropyl)-dimethyl-ammonio]-1-propanesulfonate (CHAPS) in tris buffered saline (TBS) (for transgenic animals) containing protease inhibitors (Roche-11873580001 or 04693159001) per gram of tissue, e.g. for 0.158 g brain, add 1.58 ml of 0.4% DEA. All samples were sonicated for 30 sec on ice at 20% power output (pulse mode). Homogenates were centrifuged at 221.300×g for 50 min. The resulting high speed supernatants were then transferred to fresh tubes and were optionally further purified before the next step. A portion of the supernatant was neutralized with 10% 0.5 M Tris-HCl and this was used to quantify Aβtotal.
(§5) The obtained supernatants were purified with Water Oasis HLB reverse phase columns (Waters Corp., Milford, Mass.) to remove non-specific immunoreactive material from the brain lysates prior subsequent Aβ detection. Using a vacuum manifold, all solutions were passed through the columns at a rate of approximately 1 ml/min, so the vacuum pressure was adjusted accordingly throughout the procedure. Columns were preconditioned with 1 ml of 100% MeOH, before equilibration with 1 ml of H2O, Non-neutralized brain lysates were loaded onto the columns. The loaded samples were then washed twice with the first wash performed with 1 ml of 5% MeOH, and the second wash with 1 ml of 30% MeOH. Finally, the Aβ was eluted from the columns and into 100×30 mm glass tubes, with a solution of 90% MeOH with 2% NH4OH. […]

Aβtotal [2] = assay: In vivo efficacy: Aβtotal in brain (ELISA); design: species or system mouse; conditions: brain soluble fraction; typical protocol: single oral dose, overnight fasted animals, after four hours
From the text: as §1, §2, §3, §4, §5

Row | Structure (SMILES) | IC50 (Aβtotal [1]) | Aβ42 (% Ctrl) _Mean (Aβ42) | Aβtotal (% Ctrl) _Mean (Aβtotal [2]) | melting point
1 | COc1cc(Nc2cccc3cn(CC4CC4)nc23)ccc1-c1cnc(C)o1.Cl [Compound 38, 2-(cyclopropylmethyl)-N-[3-methoxy-4-(2-methyl-5-oxazolyl)phenyl]-2H-indazol-7-amine HCl] | > 3000 nM | 123 % Ctrl | 106 % Ctrl | –
2 | COc1cc(Nc2cccc3cn(CC(F)(F)F)nc23)ccc1-c1cnc(C)o1 [Compound 6, N-[3-methoxy-4-(2-methyl-5-oxazolyl)phenyl]-2-(2,2,2-trifluoroethyl)-2H-indazol-7-amine] | > 3000 nM | 79 % Ctrl | 95 % Ctrl | –
3 | COc1cc(Nc2cccc3cn(Cc4ccc(F)cc4)nc23)ccc1-n1cnc(C)c1 [Compound 15, 2-[(4-fluorophenyl)methyl]-N-[3-methoxy-4-(4-methyl-1H-imidazol-1-yl)phenyl]-2H-indazol-7-amine] | > 3000 nM | 69 % Ctrl | 94 % Ctrl | –
4 | COc1cccc(-n2cc3cccc(Nc4ccc(-n5cnc(C)c5)c(OC)c4)c3n2)c1 [Compound 1, N-[3-methoxy-4-(4-methyl-1H-imidazol-1-yl)phenyl]-2-(3-methoxyphenyl)-2H-indazol-7-amine] | > 3000 nM | 94 % Ctrl | 108 % Ctrl | –
5 | COc1cccc(-n2nc3c(Nc4ccc(-n5cnc(C)c5)c(OC)c4)cccc3c2C)c1 [Compound 2, N-[3-methoxy-4-(4-methyl-1H-imidazol-1-yl)phenyl]-2-(3-methoxyphenyl)-3-methyl-2H-indazol-7-amine] | > 1000 nM | 59 % Ctrl | 90 % Ctrl | 184.4 °C
6 | COc1cccc(-n2nc3c(Nc4ccc(-c5cnc(C)o5)c(OC)c4)nccc3c2C)c1 [Compound 42, N-[3-methoxy-4-(2-methyl-5-oxazolyl)phenyl]-2-(3-methoxyphenyl)-3-methyl-2H-pyrazolo[3,4-c]pyridin-7-amine] | > 3000 nM | 104 % Ctrl | 100 % Ctrl | 194.4 °C
7 | COc1cccc(-n2nc3c(Nc4ccc(-c5cnc(C)o5)cc4)cccc3c2C)c1 [Compound 29, 2-(3-methoxyphenyl)-3-methyl-N-[4-(2-methyl-5-oxazolyl)phenyl]-2H-indazol-7-amine] | > 1000 nM | 96 % Ctrl | 98 % Ctrl | 152.2 °C
